Measurements reported in US9790169B2, “IDO inhibitors” (BRISTOL-MYERS SQUIBB COMPANY, priority 2015, dated 2017).
Structures can show the parent of a compound that is named as a salt.

Columns and labels:
human IDO1 [1] = target: T1, human IDO1 (Homo sapiens, UniProt P14902); assay: Assessment of human IDO-1 inhibitory activity in Hela cells (Interferon-gamma stimulated HeLa cells, Ehrlich reagent, absorbance 490 nm); type: cell-based; parameters: endogenous in cells; host or cells: HeLa cells stimulated with interferon-gamma; conditions: Hela Human IDO-1 cellular assay
T1 sequence (P14902 whole entry): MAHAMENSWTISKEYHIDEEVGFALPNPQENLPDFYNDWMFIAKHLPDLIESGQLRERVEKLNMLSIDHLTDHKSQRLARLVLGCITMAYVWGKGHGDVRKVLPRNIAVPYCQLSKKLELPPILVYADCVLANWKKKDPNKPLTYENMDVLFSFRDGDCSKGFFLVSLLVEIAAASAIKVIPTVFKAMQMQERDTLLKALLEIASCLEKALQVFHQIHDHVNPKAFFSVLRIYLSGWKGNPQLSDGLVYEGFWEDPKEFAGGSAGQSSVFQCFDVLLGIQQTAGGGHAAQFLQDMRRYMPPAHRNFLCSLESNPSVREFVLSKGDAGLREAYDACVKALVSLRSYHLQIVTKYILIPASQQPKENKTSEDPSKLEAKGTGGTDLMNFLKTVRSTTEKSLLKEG
Method: Exemplary compounds were tested for inhibition of IDO activity.
Assessment of Human IDO-1 Inhibitory Activity in Hela Cells
HeLa cells were seeded at 20,000 cells per 30 μL per well with RPMI/phenol red free media containing 10% FBS in a 384-well tissue culture plate (black with clear bottoms). 50 nL of compound was added to cells and incubated at 37° C. for one hour. 20 μL of the recombinant human Interferon-gamma (R&D System, Cat. #285-IF, at final concentration of 10 ng/ml) or recombinant murine Interferon-gamma (PEPROTECH® Inc., Cat. #315-05, final concentration of 5 ng/ml) was added to activate IDO signaling. The cells were incubated for 18 hours in 37° C. incubator with 5% CO2.
Compound treatment was stopped by adding 5 μl trichloroacetic acid to a final concentration of 3%. Subsequently, the cell plate was further incubated at 50° C. for 30 minute. An equal volume supernatant (20 μL) and 2% (w/v) Ehrlich reagent (4-dimethylaminobenzaldehyde) in glacial acetic acid were mixed in a new clear bottom 384-well plate. This plate was incubated at room temperature for 30 minutes. Absorbance at 490 nm was measured on Envision plate reader.
Compound IC50 values were calculated using counts from unstimulated (no INF-gamma treatment) wells as 100% inhibition. INF-gamma treatment without compound treatment as 0% inhibition.

human IDO1 [2] = target: T1, human IDO1; assay: Assessment of human IDO-1 inhibitory activity in HEK cells (human IDO1/HEK293 cells, kynurenine read-out with Ehrlich reagent, absorbance 490 nm); type: cell-based; parameters: expressed in transfected cells; conditions: HEK Human IDO-1 cellular assay
Summary of the method: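 Kynurenine output from stably IDO1-transfected HEK293 cells (10,000/well, phenol red-free RPMI, 10% FBS) after 20 h compound exposure at 37 °C. The reaction was stopped with 0.2% TCA and heated 30 min at 50 °C, then the supernatant was mixed with Ehrlich reagent and read at 490 nm. IC50 was set against DMSO and a 500 nM reference standard as 0 and 100% inhibition.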

Row | SMILES | IC50 (human IDO1 [1]) [nM] | IC50 (human IDO1 [2]) [nM]
1 | CCN(c1ccc(C(C)(C)CC(=O)O)cc1Nc1ccc(C#N)cc1)C1CCC(C)(O)CC1 (stereo not shown) [Example 4, 3-(3-((4-cyanophenyl)amino)-4-(ethyl(4-hydroxy-4-methylcyclohexyl)amino)phenyl)-3-methylbutanoic acid] | < 50 | –
2 | CCCN(c1ccc(C(C)(C)CC(=O)O)cc1Nc1ccc(Cl)cc1)C1CCOCC1 [Example 21, 3-(3-((4-Chlorophenyl)amino)-4-(propyl(tetrahydro-2H-pyran-4-yl)amino)phenyl)-3-methylbutanoic acid] | < 5 | –
3 | CCOc1ncc(Nc2cc(C(COC)CC(=O)O)ccc2N(C)C2CCOCC2)cn1 (single isomer, unassigned) [Example 878, 3-(3-((2-ethoxypyrimidin-5-yl)amino)-4-(methyl (tetrahydro-2H-pyran-4-yl)amino)phenyl)-4-methoxybutanoic acid] | > 50 | –
4 | COCCN(c1ccc(C(COC)CC(=O)O)cc1Nc1ccc(Cl)cc1)C1CCOCC1 (single isomer, unassigned) [Example 256 Enantiomer 1, 3-(3-((4-Chlorophenyl)amino)-4-((2-methoxyethyl)(tetrahydro-2H-pyran-4-yl)amino)phenyl)-4-methoxybutanoic acid] | < 5 | –
5 | CCOc1ncc(Nc2cc([C@@H](CC)CC(=O)O)ccc2N(CC(C)(C)O)C2CCCCC2)cn1 (single isomer, unassigned) [Example 229] | – | < 50
6 | COCC(CC(=O)O)c1ccc(N(CC(C)C)C2CCCCC2)c(NC(=O)Cc2ccccc2F)c1 (racemic) [Example 1230, (+/−)-3-(4-(Cyclohexyl(isobutyl)amino)-3-(2-(2-fluorophenyl)acetamido)phenyl)-4-methoxybutanoic acid] | – | < 50
7 | CCN(c1ccc(C(C)(C)CC(=O)O)cc1NC(=O)Nc1ccc(C)cc1)C1CCC(C)(O)CC1 (stereo not shown) [Example 5, 3-(4-(Ethyl(4-hydroxy-4-methylcyclohexyl)amino)-3-(3-(p-tolyl)ureido)phenyl)-3-methylbutanoic acid] | – | < 50
8 | CCN(c1ccc([C@@H](COC)CC(=O)O)cc1NC(=O)Nc1ccc(C)cc1)C1CCOCC1 (single isomer, unassigned) [Example 433] | – | > 50
9 | CCC(CC(=O)O)c1ccc(N2CCC[C@H]2C(C)(C)O)c(NC(=O)Nc2ccc(F)cc2)c1 (single isomer, unassigned) [Example 813] | – | > 50
10 | CCC(CC(=O)O)c1ccc(N2CCC[C@H]2C(C)(C)O)c(Nc2cnc(OCC3CC3)nc2)c1 (single isomer, unassigned) [Example 822] | – | > 50
11 | COCC(CC(=O)O)c1ccc(N(CC2CC2)C2CCOCC2)c(Nc2ccc(Cl)cc2)c1 (single isomer, unassigned) [Example 690, 3-(3-((4-chlorophenyl)amino)-4-((cyclopropylmethyl) (tetrahydro-2H-pyran-4-yl)amino)phenyl)-4-methoxybutanoic acid] | – | > 50
12 | CCC(CC(=O)O)c1ccc(N2CCC[C@H]2C(C)(C)O)c(NC(=O)Nc2ccc(OC)cc2)c1 (single isomer, unassigned) [Example 811] | – | > 50
13 | COCC(CC(=O)O)c1cc(F)c(N(CC(C)C)CC(C)C)c(NC(=O)Cc2ccc(C)cc2)c1 (single isomer, unassigned) [Example 1177, 3-(4-(Diisobutylamino)-3-fluoro-5-(2-(p-tolyl)acetamido)phenyl)-4-methoxybutanoic acid] | – | < 50
14 | CC(C)CN(c1ccc(C(C)CC(=O)O)cc1NC(=O)Nc1cncnc1)C1CCOCC1 (single isomer, unassigned) [Example 961, 3-(4-(isobutyl(tetrahydro-2H-pyran-4-yl)amino)-3-(3-(pyrimidin-5-yl)ureido)phenyl)butanoic acid] | – | > 50
15 | CC[C@H](CC(=O)O)c1ccc(N2CCC[C@@H]2C(C)(C)O)c(Nc2cnc(OCC3CC3)nc2)c1 (single isomer, unassigned) [Example 842] | – | > 50
16 | CCOc1ccc(Nc2cc(C(CC)CC(=O)O)ccc2N2CCC[C@H]2C(C)(C)O)cc1 (single isomer, unassigned) [Example 833] | – | > 50
17 | CCOc1ncc(Nc2cc(C(CC)CC(=O)O)ccc2N2CCOC[C@H]2C(C)C)cn1 (single isomer, unassigned) [Example 903] | – | < 50
18 | COCC(CC(=O)O)c1ccc(N(CC(C)C)C2CCOCC2)c(NC(=O)Nc2ccc(Cl)cc2F)c1 (single isomer, unassigned) [Example 1210, 3-(3-(3-(4-Chloro-2-fluorophenyl)ureido)-4-(isobutyl(tetrahydro-2H-pyran-4-yl)amino)phenyl)-4-methoxybutanoic acid] | – | < 50
19 | CC(C)CN(c1ccc(C(COCC2CC2(F)F)CC(=O)O)cc1NC(=O)Nc1ccc(Cl)cc1F)C1CCCCC1 (racemic) [Example 1002, (+/−)-3-(3-(3-(4-Chloro-2-fluorophenyl)ureido)-4-(cyclohexyl(isobutyl)amino)phenyl)-4-((2,2-difluorocyclopropyl)methoxy)butanoic acid] | – | < 50
20 | CC(C)CN(CC(C)C)c1ccc(C(CC(=O)O)c2ccccc2)cc1NC(=O)Nc1ccc(OC(F)(F)F)cc1 (racemic) [Example 1009, (+/−)3-(4-(Diisobutylamino)-3-(3-(4-(trifluoromethoxy)phenyl)ureido)phenyl)-3-phenylpropanoic acid] | – | > 50
21 | CC[C@@H](CC(=O)O)c1ccc(N(CC)C2CCOCC2)c(Nc2ccc3c(c2)OCCO3)c1 (single isomer, unassigned) [Example 486] | – | > 50
22 | CC[C@@H](CC(=O)O)c1ccc(N(CC(C)C)C2CCS(=O)(=O)CC2)c(NC(=O)Nc2ccc(OC)cc2F)c1 (single isomer, unassigned) [Example 216] | – | > 50
23 | CCC(CC(=O)O)c1cc(F)c(N(CC(C)C)CC(C)C)c(NC(=O)Nc2cc(C(C)(C)C)on2)c1 (racemic) [Example 971, (+/−)-3-(3-(3-(5-(tert-Butyl)isoxazol-3-yl)ureido)-4-(diisobutylamino)-5-fluorophenyl)pentanoic acid, TFA] | – | > 50

Second part, the compound after the results:

Row | IC50 (human IDO1 [1]) [nM] | IC50 (human IDO1 [2]) [nM] | SMILES
24 | – | < 50 | CC(CC(=O)O)c1ccc(N(CC(C)(C)O)C2CCOCC2)c(Nc2ccc(C#N)cc2)c1 (single isomer, unassigned) [Example 194, 3-(3-((4-cyanophenyl)amino)-4-((2-hydroxy-2-methylpropyl)(tetrahydro-2H-pyran-4-yl)amino)phenyl)butanoic acid]
25 | – | < 50 | CCC(CC(=O)O)c1ccc(N2C[C@@H](C)O[C@@H](C)C2)c(Nc2ccc3c(c2)OC(F)(F)O3)c1 (single isomer, unassigned) [Example 765]
26 | – | < 5 | CCC(CC(=O)O)c1ccc(N2CCOC[C@H]2C(C)C)c(Nc2ccc(F)cc2)c1 (single isomer, unassigned) [Example 901]
27 | – | < 5 | CCCN(CC1CC1)c1ccc(C(CC)CC(=O)O)cc1Nc1cnc(OCC)nc1 (single isomer, unassigned) [Example 660, 3-(4-((cyclopropylmethyl)(propyl)amino)-3-((2-ethoxypyrimidin-5-yl)amino)phenyl)pentanoic acid]
28 | – | < 5 | CCC(CC(=O)O)c1ccc(N(CC(C)C)C2CCCCC2)c(Nc2ccc3nc(C)sc3c2)c1 (single isomer, unassigned) [Example 305, 3-(4-(cyclohexyl(isobutyl)amino)-3-((2-methylbenzo [d]thiazol-6-yl)amino)phenyl)pentanoic acid]
29 | – | < 5 | CCN(c1ccc(C(C)(C)CC(=O)O)cc1Nc1ccc(C#N)cc1)C1CCOCC1 [Example 160, 3-(3-((4-cyanophenyl)amino)-4-(ethyl(tetrahydro-2H-pyran-4-yl)amino)phenyl)-3-methylbutanoic acid]
30 | – | < 5 | CCCN(c1ccc([C@@H](CC)CC(=O)O)cc1Nc1cnc(OCC)nc1)C1CCOCC1 (single isomer, unassigned) [Example 535]
31 | – | < 5 | CCCN(c1ccc([C@@H](COC)CC(=O)O)cc1Nc1ccc(Cl)cc1)C1CCOCC1 (single isomer, unassigned) [Example 564]
32 | – | < 5 | CCOc1ccc(NC(=O)Nc2cc(C(COC)CC(=O)O)ccc2N(CC(C)C)C2CCCCC2)c(F)c1 (single isomer, unassigned) [Example 1236, 3-(4-(Cyclohexyl(isobutyl)amino)-3-(3-(4-ethoxy-2-fluorophenyl)ureido)phenyl)-4-methoxybutanoic acid]
33 | – | < 5 | CCC(CC(=O)O)c1ccc(N(CC)C2CCCOC2)c(NC(=O)Nc2ccc(C)cc2)c1 (single isomer, unassigned) [Example 73 D1, 3-(4-(Ethyl(tetrahydro-2H-pyran-3-yl)amino)-3-(3-(p-tolyl)ureido)phenyl)pentanoic acid]
34 | – | < 5 | CCC(CC(=O)O)c1ccc(N2CCOC[C@H]2C(C)C)c(Nc2ccc(C#N)cc2)c1 (single isomer, unassigned) [Example 899]
